22 compounds from patent US12522594B2, “2-heteroaryl-3-oxo-2,3-dihydropyridazine-4-carboxamides for the treatment of cancer” (Deutsches Krebsforschungszentrum, priority 2017, dated 2026) can be followed below.

SMILES strings stand for the structures.

The target in test [1] is T1, AHR (Homo sapiens, UniProt P35869).
T1 sequence (P35869 11-848): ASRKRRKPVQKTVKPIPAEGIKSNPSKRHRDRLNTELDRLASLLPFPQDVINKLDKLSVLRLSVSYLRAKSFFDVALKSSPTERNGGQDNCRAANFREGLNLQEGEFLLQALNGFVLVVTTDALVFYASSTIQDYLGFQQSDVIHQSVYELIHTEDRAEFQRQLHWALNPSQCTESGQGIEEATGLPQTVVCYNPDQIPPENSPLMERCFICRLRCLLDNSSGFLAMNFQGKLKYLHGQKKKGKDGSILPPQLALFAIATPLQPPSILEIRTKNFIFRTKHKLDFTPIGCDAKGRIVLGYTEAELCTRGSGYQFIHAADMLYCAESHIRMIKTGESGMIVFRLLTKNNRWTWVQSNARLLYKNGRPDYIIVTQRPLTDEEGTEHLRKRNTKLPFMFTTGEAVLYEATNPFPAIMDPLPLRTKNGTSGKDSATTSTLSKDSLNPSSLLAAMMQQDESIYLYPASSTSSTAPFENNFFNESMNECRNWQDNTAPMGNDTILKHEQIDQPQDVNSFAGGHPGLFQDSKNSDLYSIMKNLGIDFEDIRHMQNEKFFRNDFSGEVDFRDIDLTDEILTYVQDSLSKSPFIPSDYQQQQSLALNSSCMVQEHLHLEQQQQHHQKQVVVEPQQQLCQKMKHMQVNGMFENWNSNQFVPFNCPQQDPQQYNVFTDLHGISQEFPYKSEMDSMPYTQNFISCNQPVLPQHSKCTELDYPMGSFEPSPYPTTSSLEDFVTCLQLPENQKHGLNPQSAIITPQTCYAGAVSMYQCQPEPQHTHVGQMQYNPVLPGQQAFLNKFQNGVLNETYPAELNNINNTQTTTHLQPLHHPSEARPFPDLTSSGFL
The test is described as follows: In vitro assay 2: agonism in human cell line (transactivation assay, U87 cells, DRE firefly luciferase reporter). Type of test: cell-based. Also noted: host or cells: U87 glioblastoma cells, stably transfected with DRE firefly luciferase and renilla reporter constructs. The settings on record: no kynurenic acid, 20 hours, read-out: Assay 2: AHR-luc Hum Agonism IC50. The method in brief:
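Agonist readout: DRE firefly luciferase, with constitutive renilla reporter, in stably transfected U87 cells expressing AHR endogenously. Normalization used positive control (300 uM kynurenic acid) and negative control.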
(In a reporter assay the amount or activity of a reporter protein is the signal.)

Test [2] addresses T1, AHR. Put plainly: In vitro assay 1: antagonism in human cell line (transactivation assay, U87 cells prestimulated with kynurenic acid, DRE firefly luciferase reporter). The settings on record: 150 uM kynurenic acid, 20 hours, read-out: Assay 1: AHR-luc Hum Antagonism IC50. Also noted: host or cells: U87 glioblastoma cells, stably transfected with DRE firefly luciferase and renilla reporter constructs. In kind it is cell-based. A digest of the protocol: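 Antagonism measured after kynurenic acid prestimulation in U87 cells that express AHR endogenously and stably harbor a firefly luciferase gene under DRE control plus a constitutive renilla construct. Positive and negative controls served for normalization.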

In general, IC50 refers to the concentration that inhibits the measured activity by half. Turning to `O=C(NC[C@@H](O)C(F)(F)F)c1cc(-c2ccc(OC(F)(F)F)cc2)nn(-c2cccnc2)c1=O` [Example 293, 3-Oxo-2-(pyridin-3-yl)-N-[(2R)-3,3,3-trifluoro-2-hydroxypropyl]-6-[4-(trifluoromethoxy)phenyl]-2,3-dihydropyridazine-4-carboxamide], the values for the IC50 on AHR [1] and on AHR [2] were over 20000 nM and 82.2 nM, respectively.

Turning to `N#C[C@@H](CO)NC(=O)c1cc(-c2ccc(Cl)cc2)nn(-c2cccnc2)c1=O` [Example 254, 6-(4-Chlorophenyl)-N-[(1S)-1-cyano-2-hydroxyethyl]-3-oxo-2-(pyridin-3-yl)-2,3-dihydropyridazine-4-carboxamide], the IC50 was over 20000 nM at AHR [1] and 22.9 nM at AHR [2].

`C[C@@H](CO)NC(=O)c1cc(-c2ccc(CF)cc2)nn(-c2cccnc2)c1=O` [Example 285, 6-[4-(Fluoromethyl)phenyl]-N-[(2S)-1-hydroxypropan-2-yl]-3-oxo-2-(pyridin-3-yl)-2,3-dihydropyridazine-4-carboxamide]: the figures for the IC50 on AHR [1] and at AHR [2] were over 20000 nM and 602 nM, respectively.

With `C[C@@H](CO)NC(=O)c1cc(-c2ccc(C(F)(F)F)cc2)nn(-c2cnn(C(F)F)c2)c1=O` [Example 261, 2-[1-(Difluoromethyl)-1H-pyrazol-4-yl]-N-[(2S)-1-hydroxypropan-2-yl]-3-oxo-6-[4-(trifluoromethyl)phenyl]-2,3-dihydropyridazine-4-carboxamide], the figures for the concentration for half-maximal inhibition (IC50) at AHR [1] and at AHR [2] were over 20000 nM and 33 nM, respectively.

Consider `O=C(N[C@H]1CCC[C@H]1O)c1cc(-c2ccc(Cl)cc2)nn(-c2ccnnc2)c1=O` [Example 167, 3-(4-Chlorophenyl)-N-[(1S,2R)-2-hydroxycyclopentyl]-6-oxo-6H-1,4′-bipyridazine-5-carboxamide], for which the IC50 on AHR [1] is over 20000 nM; at AHR [2] it was 239 nM.

For `Cn1cc(-n2nc(-c3ccc(Cl)cc3)cc(C(=O)NC(CO)CO)c2=O)cn1` [Example 31, 6-(4-Chlorophenyl)-N-(1,3-dihydroxypropan-2-yl)-2-(1-methyl-1H-pyrazol-4-yl)-3-oxo-2,3-dihydropyridazine-4-carboxamide], the values for the IC50 on AHR [1] and at AHR [2] were over 20000 nM and 244 nM, respectively.

Turning to `Cn1cc(-n2nc(-c3ccc(Cl)cc3)cc(C(=O)N[C@@H](CO)C(F)(F)F)c2=O)cn1` [Example 34, (−)-6-(4-Chlorophenyl)-2-(1-methyl-1H-pyrazol-4-yl)-3-oxo-N-[(2S)-1,1,1-trifluoro-3-hydroxypropan-2-yl]-2,3-dihydropyridazine-4-carboxamide], the IC50 is over 20000 nM at AHR [1] and 130 nM at AHR [2].

On to `COC[C@@H](CO)NC(=O)c1cc(-c2ccc(Cl)cc2)nn(-c2cnn(C)c2)c1=O` [Example 30, 6-(4-Chlorophenyl)-N-[(2R)-1-hydroxy-3-methoxypropan-2-yl]-2-(1-methyl-1H-pyrazol-4-yl)-3-oxo-2,3-dihydropyridazine-4-carboxamide], for which the results for the IC50 on AHR [1] and on AHR [2] were over 20000 nM and 60.8 nM, respectively.

For the compound `O=C(N[C@H]1CCCC[C@H]1O)c1cc(-c2ccc(Cl)cc2)nn(-c2cncc(F)c2)c1=O` [Example 124, 6-(4-Chlorophenyl)-2-(5-fluoropyridin-3-yl)-N-[(1S,2R)-2-hydroxycyclohexyl]-3-oxo-2,3-dihydropyridazine-4-carboxamide], the IC50 was over 20000 nM on AHR [1] and 3.64 nM on AHR [2].

Consider `O=C(NC[C@H](O)CO)c1cc(-c2ccc(C(F)(F)F)cc2)nn(-c2cccnc2)c1=O` [Example 114, N-[(2S)-2,3-Dihydroxypropyl]-3-oxo-2-(pyridin-3-yl)-6-[4-(trifluoromethyl)phenyl]-2,3-dihydropyridazine-4-carboxamide], for which the IC50 was over 20000 nM on AHR [1] and 85.5 nM at AHR [2].

In the case of `C[C@@H](CO)NC(=O)c1cc(-c2ccc(Cl)cc2)nn(-c2cnn(C3CCC3)c2)c1=O` [Example 42, 6-(4-Chlorophenyl)-2-(1-cyclobutyl-1H-pyrazol-4-yl)-N-[(2S)-1-hydroxypropan-2-yl]-3-oxo-2,3-dihydropyridazine-4-carboxamide], the IC50 on AHR [1] is over 20000 nM; at AHR [2], 1570 nM.

Take `C[C@H](NC(=O)c1cc(-c2ccc(C(F)(F)F)cc2)nn(-c2cnsc2)c1=O)C(C)(C)O` [Example 196, N-[(2S)-3-Hydroxy-3-methylbutan-2-yl]-3-oxo-2-(1,2-thiazol-4-yl)-6-[4-(trifluoromethyl)phenyl]-2,3-dihydropyridazine-4-carboxamide]: the IC50 on AHR [1] was over 20000 nM; at AHR [2], 0.418 nM.

Turning to `O=C(N[C@H](CO)C(F)(F)F)c1cc(-c2ccc(Cl)cc2)nn(-c2cnsc2)c1=O` [Example 198, 6-(4-Chlorophenyl)-3-oxo-2-(1,2-thiazol-4-yl)-N-[(2R)-1,1,1-trifluoro-3-hydroxypropan-2-yl]-2,3-dihydropyridazine-4-carboxamide], the figures for the IC50 on AHR [1] and on AHR [2] were over 20000 nM and 0.599 nM, respectively.

On to `C[C@@H](CO)NC(=O)c1cc(-c2ccc(C(F)(F)F)nc2)nn(-c2cnsc2)c1=O` [Example 251, N-[(2S)-1-Hydroxypropan-2-yl]-3-oxo-2-(1,2-thiazol-4-yl)-6-[6-(trifluoromethyl)pyridin-3-yl]-2,3-dihydropyridazine-4-carboxamide], for which the values for the IC50 at AHR [1] and at AHR [2] were over 20000 nM and 17.9 nM, respectively.

Take `O=C(N[C@H](CO)C(F)(F)F)c1cc(-c2ccc(C(F)(F)F)cc2)nn(-c2cn[nH]c2)c1=O` [Example 212, 3-Oxo-2-(1H-pyrazol-4-yl)-N-[(2R)-1,1,1-trifluoro-3-hydroxypropan-2-yl]-6-[4-(trifluoromethyl)phenyl]-2,3-dihydropyridazine-4-carboxamide]: the values for the IC50 on AHR [1] and at AHR [2] were over 20000 nM and 1.69 nM, respectively.

For `C[C@@H](CO)NC(=O)c1cc(-c2ccc(Cl)cc2)nn(-c2cn[nH]c2)c1=O` [Example 190, (+)-6-(4-Chlorophenyl)-N-[(2S)-1-hydroxypropan-2-yl]-3-oxo-2-(1H-pyrazol-4-yl)-2,3-dihydropyridazine-4-carboxamide], the IC50 was over 20000 nM on AHR [1] and 65.6 nM at AHR [2].

In the case of `CC(C)(O)CNC(=O)c1cc(-c2ccc(Cl)cc2)nn(-c2ccnnc2)c1=O` [Example 178, 3-(4-Chlorophenyl)-N-(2-hydroxy-2-methylpropyl)-6-oxo-6H-1,4′-bipyridazine-5-carboxamide], the values for the IC50 at AHR [1] and at AHR [2] were over 20000 nM and 594 nM, respectively.

In the case of `O=C(NCC1(O)CCC1)c1cc(-c2ccc(C(F)(F)F)cc2)nn(-c2cccnc2)c1=O` [Example 189, N-[(1-Hydroxycyclobutyl)methyl]-3-oxo-2-(pyridin-3-yl)-6-[4-(trifluoromethyl)phenyl]-2,3-dihydropyridazine-4-carboxamide], the IC50 on AHR [1] is over 20000 nM; on AHR [2] it was 3.03 nM.

With `O=C(N[C@@H]1CCCC[C@@H]1O)c1cc(-c2ccc(Cl)cc2)nn(-c2cccnc2)c1=O` (relative stereo) [Example 133, 6-(4-Chlorophenyl)-N-[(cis)-2-hydroxycyclohexyl]-3-oxo-2-(pyridin-3-yl)-2,3-dihydropyridazine-4-carboxamide], the IC50 at AHR [1] is over 20000 nM; at AHR [2], 7.52 nM.

Take `C[C@@H](CO)NC(=O)c1cc(-c2ccc(C(F)F)nc2)nn(-c2cnn(C)c2)c1=O` [Example 66, 6-[6-(Difluoromethyl)pyridin-3-yl]-N-[(2S)-1-hydroxypropan-2-yl]-2-(1-methyl-1H-pyrazol-4-yl)-3-oxo-2,3-dihydropyridazine-4-carboxamide]: the IC50 on AHR [1] is over 20000 nM; at AHR [2] it was 259 nM.

With `C[C@@H](NC(=O)c1cc(-c2ccc(C(F)(F)F)nc2)nn(-c2cncc(F)c2)c1=O)C(C)(C)O` [Example 342, 2-(5-Fluoropyridin-3-yl)-N-[(2R)-3-hydroxy-3-methylbutan-2-yl]-3-oxo-6-[6-(trifluoromethyl)pyridin-3-yl]-2,3-dihydropyridazine-4-carboxamide], the IC50 on AHR [1] is over 20000 nM; at AHR [2] it was 132 nM.

As for `C[C@H](NC(=O)c1cc(-c2ccc(C(F)(F)F)cc2)nn(-c2cccnc2)c1=O)C(C)(C)O` [Example 226, N-[(2S)-3-Hydroxy-3-methylbutan-2-yl]-3-oxo-2-(pyridin-3-yl)-6-[4-(trifluoromethyl)phenyl]-2,3-dihydropyridazine-4-carboxamide], the IC50 on AHR [1] was over 20000 nM; on AHR [2], 5.91 nM.
